Test results as given in paper PMC8217813, “Bridging Computational Vaccinology and Vaccine Development Through Systematic Identification, Characterization, and Downselection of Conserved and Variable Circumsporozoite Protein CD4 T Cell Epitopes From Diverse Plasmodium falciparum Strains” (Frontiers in Immunology, 2021).
Peptide text beside a SMILES is read from it.

Key:
HLA-DRB1*1101 = biological target: T1, HLA-DRB1*1101 (Homo sapiens, UniProt P01903+P01911, A100R/A169T/A87E/I96F/K41T/L162R/M171V/P40S/Q125H/Q178H/Q39Y/Q99D/R42S/S66Y/T262R/V115G/W38E); assay: In vitro class II HLA binding competition assay; settings: competition with fluorescent-labeled reference peptide, class II HLA monomers, 24-hours, test peptide 100,000 nM to 100 nM, time-resolved fluorescence
T1 construct: purchased
Protocol: (§1) EpiVax conducted in vitro quantification of peptide-HLA binding affinity utilizing a competition assay format per the methodology described in ([35]). Briefly, a fluorescent-labeled, high-binding reference peptide and titrating concentrations of test peptide were incubated in a 96-well plate format with limiting concentrations of class II HLA monomers in aqueous buffer for 24-hours. Post incubation, the mixtures were moved to a 96-well plate coated with anti-HLA-DR antibody to capture HLA-peptide complexes. Time-resolved fluorescence measurement of the bound labeled reference peptide complex present in each mixture were detected with a europium-linked probe via fluorescent spectrophotometry using a SpectraMax M5 system. HLA binding affinity of each test peptide was expressed as the percent inhibition of reference peptide binding. Percent inhibition values (across the test peptide titration range) were used to calculate the half maximal inhibitory concentration (IC50) of each test peptide. For these studies, test peptides were assessed using a range of final concentrations from 100,000 nM to 100 nM and all peptides were reconstituted in dimethyl sulfoxide (DMSO).

HLA-DRB1*0401 = biological target: T2, HLA-DRB1*0401 (Homo sapiens, UniProt P01903+P01911, A100K/A169T/F76Y/I96L/K127E/L162R/M171V/N62H/P40V/Q125Y/R42H/S133A/S149N/S66Y/V115G/V209L/W38E); assay: In vitro class II HLA binding competition assay; settings: competition with fluorescent-labeled reference peptide, class II HLA monomers, 24-hours, test peptide 100,000 nM to 100 nM, time-resolved fluorescence; read-out: IC50, DRB1*0401
T2 construct: purchased
Protocol: as §1

HLA-DRB1*0801 = HLA-DRB1*0801 (Homo sapiens, UniProt P01903+P01911, A100R/A103L/A169T/D86S/F76Y/H45Y/I96F/K41T/L162R/M171V/P40S/Q125H/Q178H/Q39Y/Q99D/R218S/R42G/S66Y/V115G/W38E); assay: In vitro class II HLA binding competition assay; settings: competition with fluorescent-labeled reference peptide, class II HLA monomers, 24-hours, test peptide 100,000 nM to 100 nM, time-resolved fluorescence
Protocol: as §1

HLA-DRB1*1301 = HLA-DRB1*1301 (Homo sapiens, UniProt P01903+P01911, A100E/A169T/K41T/L162R/M171V/P40S/Q125H/Q178H/Q39Y/Q99D/R42S/S66N/T262R/W38E/Y61H); assay: In vitro class II HLA binding competition assay; settings: competition with fluorescent-labeled reference peptide, class II HLA monomers, 24-hours, test peptide 100,000 nM to 100 nM, time-resolved fluorescence
Protocol: as §1

[1] = test system: CD4 T cells co-cultured with autologous DCs from PBMCs; type: cell-based, human; settings: positive = Stimulation Index ≥1.5-fold above baseline, 5 µg/mL peptide

CC(=O)N[C@@H](CCCCN)C(=O)N[C@@H](CCC(N)=O)C(=O)N[C@@H](CCC(=O)O)C(=O)N[C@@H](CC(N)=O)C(=O)N[C@@H](Cc1c[nH]c2ccccc12)C(=O)N[C@@H](Cc1ccc(O)cc1)C(=O)N[C@@H](CO)C(=O)N[C@@H](CC(C)C)C(=O)N[C@@H](CCCCN)C(=O)N[C@@H](CCCCN)C(=O)N[C@@H](CC(N)=O)C(=O)N[C@@H](CO)C(=O)N[C@@H](CCCNC(=N)N)C(=O)N[C@@H](CO)C(=O)N[C@@H](CC(C)C)C(=O)NCC(=O)N[C@@H](CCC(=O)O)C(=O)N[C@@H](CC(N)=O)C(=O)N[C@@H](CC(=O)O)C(N)=O [Cluster C2] (Ac-KQENWYSLKKNSRSLGEND-NH2)
IC50 (HLA-DRB1*1101): 395 nM | IC50 (HLA-DRB1*0401): 10.8 µM | IC50 (HLA-DRB1*0801): 108 nM | IC50 (HLA-DRB1*1301): 37 nM | Percentage of donors demonstrating IFN-γ responses, DR1 ([1]; DR1 donors N=5, ICCS after 14-day co-culture): 20% | Percentage of donors demonstrating IL-2 responses, DR1 ([1]; DR1 donors N=5, ICCS): 0% | Percentage of donors demonstrating IL-4 responses, DR1 ([1]; DR1 donors N=5, ICCS): 40% | Percentage of donors demonstrating IL-10 responses, DR1 ([1]; DR1 donors N=5, ICCS): 20% | Percentage of donors demonstrating TNF-α responses, DR1 ([1]; DR1 donors N=5, ICCS): 0% | Percentage of donors demonstrating IFN-γ responses, DR3 ([1]; DR3 donors N=6, ICCS after 14-day co-culture): 33% | Percentage of donors demonstrating IL-2 responses, DR3 ([1]; DR3 donors N=6, ICCS): 0% | Percentage of donors demonstrating IL-4 responses, DR3 ([1]; DR3 donors N=6, ICCS): 0% | Percentage of donors demonstrating IL-10 responses, DR3 ([1]; DR3 donors N=6, ICCS): 50% | Percentage of donors demonstrating TNF-α responses, DR3 ([1]; DR3 donors N=6, ICCS): 0% | Percentage of donors demonstrating IFN-γ responses, DR4 ([1]; DR4 donors N=10, ICCS after 14-day co-culture): 0% | Percentage of donors demonstrating IL-2 responses, DR4 ([1]; DR4 donors N=10, ICCS): 0% | Percentage of donors demonstrating IL-4 responses, DR4 ([1]; DR4 donors N=10, ICCS): 10% | Percentage of donors demonstrating IL-10 responses, DR4 ([1]; DR4 donors N=10, ICCS): 10% | Percentage of donors demonstrating TNF-α responses, DR4 ([1]; DR4 donors N=10, ICCS): 0% | Percentage of donors demonstrating IFN-γ responses, DR7 ([1]; DR7 donors N=4, ICCS after 14-day co-culture): 0% | Percentage of donors demonstrating IL-2 responses, DR7 ([1]; DR7 donors N=4, ICCS): 0% | Percentage of donors demonstrating IL-4 responses, DR7 ([1]; DR7 donors N=4, ICCS): 25% | Percentage of donors demonstrating IL-10 responses, DR7 ([1]; DR7 donors N=4, ICCS): 50% | Percentage of donors demonstrating TNF-α responses, DR7 ([1]; DR7 donors N=4, ICCS): 0% | Percentage of donors demonstrating IFN-γ responses, DR8 ([1]; DR8 donors N=4, ICCS after 14-day co-culture): 0% | Percentage of donors demonstrating IL-2 responses, DR8 ([1]; DR8 donors N=4, ICCS): 0% | Percentage of donors demonstrating IL-4 responses, DR8 ([1]; DR8 donors N=4, ICCS): 0% | Percentage of donors demonstrating IL-10 responses, DR8 ([1]; DR8 donors N=4, ICCS): 25% | Percentage of donors demonstrating TNF-α responses, DR8 ([1]; DR8 donors N=4, ICCS): 0% | Percentage of donors demonstrating IFN-γ responses, DR9 ([1]; DR9 donors N=4, ICCS after 14-day co-culture): 25% | Percentage of donors demonstrating IL-2 responses, DR9 ([1]; DR9 donors N=4, ICCS): 0% | Percentage of donors demonstrating IL-4 responses, DR9 ([1]; DR9 donors N=4, ICCS): 25% | Percentage of donors demonstrating IL-10 responses, DR9 ([1]; DR9 donors N=4, ICCS): 25% | Percentage of donors demonstrating TNF-α responses, DR9 ([1]; DR9 donors N=4, ICCS): 0% | Percentage of donors demonstrating IFN-γ responses, DR11 ([1]; DR11 donors N=4, ICCS after 14-day co-culture): 0% | Percentage of donors demonstrating IL-2 responses, DR11 ([1]; DR11 donors N=4, ICCS): 0% | Percentage of donors demonstrating IL-4 responses, DR11 ([1]; DR11 donors N=4, ICCS): 0% | Percentage of donors demonstrating IL-10 responses, DR11 ([1]; DR11 donors N=4, ICCS): 0% | Percentage of donors demonstrating TNF-α responses, DR11 ([1]; DR11 donors N=4, ICCS): 0% | Percentage of donors demonstrating IFN-γ responses, DR13 ([1]; DR13 donors N=7, ICCS after 14-day co-culture): 0% | Percentage of donors demonstrating IL-2 responses, DR13 ([1]; DR13 donors N=7, ICCS): 0% | Percentage of donors demonstrating IL-4 responses, DR13 ([1]; DR13 donors N=7, ICCS): 0% | Percentage of donors demonstrating IL-10 responses, DR13 ([1]; DR13 donors N=7, ICCS): 29% | Percentage of donors demonstrating TNF-α responses, DR13 ([1]; DR13 donors N=7, ICCS): 0% | Percentage of donors demonstrating IFN-γ responses, DR15 ([1]; DR15 donors N=7, ICCS after 14-day co-culture): 29% | Percentage of donors demonstrating IL-2 responses, DR15 ([1]; DR15 donors N=7, ICCS): 0% | Percentage of donors demonstrating IL-4 responses, DR15 ([1]; DR15 donors N=7, ICCS): 0% | Percentage of donors demonstrating IL-10 responses, DR15 ([1]; DR15 donors N=7, ICCS): 14% | Percentage of donors demonstrating TNF-α responses, DR15 ([1]; DR15 donors N=7, ICCS): 0%
